What was measured:
[1] = test system: primary cortical cultures; test: Cellular viability, Alamar Blue fluorescence assay; assay type: cell-based, mouse; conditions: primary cortical neurones, up to concentrations of 1 nM, Alamar Blue 10%
Text: (§1) In order to carry out the experiments of the present invention, either an in vitro cortical neuronal model with simultaneous overexpression of Tau and β-amyloid, obtained from a model of Alzheimer's disease in triple-transgenic (3xTg-AD or 3xTg) mice, obtainable via the detailed procedure in the international patent application WO 2003/053136 and provided by the title holders of this application, or an in vitro cortical neuronal model obtained from non-transgenic (no Tg) mice was used.
The primary cortical cultures in the present invention were obtained from 3xTg-AD mouse embryos of 15-17 days of gestation and the wild cultures were obtained from non-3xTg control mouse embryos of the same strain. The effect of the compounds used in this invention on cellular viability was estimated by a fluorescence assay using the Alamar Blue viability indicator. To carry out the assay, primary cortical cultures seeded on 96-well plates were used. The neuronal cells were incubated with yessotoxin, which was added to the culture medium at different concentrations, and the effect on in vitro neuronal viability at different treatment times was determined. The maximum concentration of yessotoxin evaluated was 1 nM and the concentration of Alamar blue was 10%.
The reaction volume used was 200 μl. Fluorescence was measured at wavelengths of 530 nm (excitation) and 590 nm (emission).

β-amyloid = test: Intracellular β-amyloid expression, immunocytometry with 6E10 antibody; assay type: cell-based, mouse; conditions: 3xTg-AD neocortical cultures, 1 nM yessotoxin between days 3 and 7 of culture; **p<0.005 vs transgenic cultures, n=3
Text: as §1
(§2) The effect of yessotoxin on overexpression of β-amyloid and Tau hyperphosphorylation was determined by immunocytometric and Western blot techniques. Primary neuronal cultures were treated with 1 nM yessotoxin between days 3 and 7 of culture. The cells were then processed following the usual protocols for immunocytometry and Western blot. For immunocytometric and Western blot studies, protein expression was evaluated using 6E10 anti-β-amyloid primary antibodies at a dilution of 1:500, AT8 anti-Tau (Tau phosphorylated on Ser202, dilution 1:1000) and AT100 anti-Tau (Tau phosphorylated on Thr212 and Ser214, dilution 1:1000). […] Total protein concentration was determined by Bradford's method using bovine albumin as standard. […] The membranes were incubated with the primary antibodies, washed, and then incubated with a secondary antibody linked to HRP; the immunoreactivity was detected by chemiluminescence. […]

[2] = test system: Tau phosphorylated on Ser202; test: Phosphorylated Tau (Ser202), Western blot with AT8 antibody; assay type: cell-based, mouse; conditions: 3xTg-AD cortical cultures, 1 nM yessotoxin between days 3 and 7 of culture; *p<0.05, n=3
Text: as §1, §2

[3] = test system: Tau phosphorylated on Thr212 and Ser214; test: Phosphorylated Tau (Thr212 and Ser214), Western blot with AT100 antibody; assay type: cell-based, mouse; conditions: 3xTg-AD cortical cultures, 1 nM yessotoxin between days 3 and 7 of culture; n=3
Text: as §1, §2

[4] = Paz et al., Marine Drugs 2008; cited from earlier work

yessotoxin
effect on in vitro cell viability [1]: did not affect in vitro cell viability
overexpression of β-amyloid (6E10 immunoreactivity) (β-amyloid): significant reduction of overexpression of β-amyloid
Tau phosphorylation (AT8, Ser202) [2]: significant reduction of Tau phosphorylation
reduction of Tau phosphorylation (AT100, Thr212 and Ser214) [3]: 12%
oral toxicity [4]: does not exhibit oral toxicity

Source: patent US20130035302A1, “USE OF […] ANALOGUES AND DERIVATIVES THEREOF FOR TREATING AND/OR PREVENTING NEURODEGENERATIVE DISEASES LINKED TO TAU AND BETA AMYLOID” (UNIVERSIDADE DE SANTIAGO DE COMPOSTELA, priority 2010, published 2013)
